Laboratory results as given in ChEMBL document CHEMBL3351821, “Naturally occurring N(6)-substituted adenosines (cytokinin ribosides) are in vitro inhibitors of platelet aggregation: an in silico evaluation of their interaction with the P2Y(12) receptor” (Bioorg Med Chem Lett, 2014).
The source made the active and inactive calls. No cut-off for these calls is given here.

System: Platelet
Assay: Inhibition of collagen-induced human platelet aggregation after 3 mins by light transmission aggregometry
Type: functional, cell-based
Details: for IC50: 0.05 h

## OC[C@H]1O[C@@H](n2cnc3c(NCc4ccc(O)cc4)ncnc32)[C@H](O)[C@@H]1O
  IC50: 6.77 µM

## c1coc(CNc2ncnc3[nH]cnc23)c1
  inhibition: Active

## OC[C@H]1O[C@@H](n2cnc3c(NCc4ccco4)ncnc32)[C@H](O)[C@@H]1O [KINETIN RIBOSIDE]
  IC50: 41.2 µM

## OC[C@H]1O[C@@H](n2cnc3c(NCc4ccccc4)ncnc32)[C@H](O)[C@@H]1O [N6-BENZYLADENOSINE]
  IC50: 37.1 µM

## CC(C)=CCNc1ncnc2c1ncn2[C@@H]1O[C@H](CO)[C@@H](O)[C@H]1O [RIBOPRINE]
  IC50: 142 µM
